Literature values, collected in patent EP0279688B1, “Methods and compositions for the use of HIV env polypeptides and antibodies thereto” (GENENTECH, INC., priority 1987, dated 1988).

Test system: viral replication
Conditions: Mitsuya and Broder, 1985

Row | SMILES | concentrations inhibiting viral replication
1 | Cc1cn([C@H]2C[C@H](N=[N+]=[N-])[C@@H](CO)O2)c(=O)[nH]c1=O [AZT] | 50-500 µm
2 | Nc1ccn([C@H]2CC[C@@H](CO)O2)c(=O)n1 [DDC] | 50-500 µm
